From US20260265207A1, “DPP1 INHIBITORS WITH POLYCYCLIC LINKERS AND USES THEREOF” (Insmed Incorporated, priority 2023, published 2026)
pIC50: −log10 of the molar value.

What was measured:
[1] = target: T1, DPP1 (Homo sapiens, UniProt P53634); test: Human DPP1 Enzyme IC50 Assay; type: biochemical; design: is first proteolytically processed into its mature form using recombinant human cathepsin L; purchased R&D Systems; details: activated recombinant human DPP1, H-Gly-Arg-AMC substrate 400 μM, pH 6.0
Experimental: Human DPP1 Enzyme IC50 Assay
Recombinant human DPP1 enzyme (R&D Systems; Minneapolis, MN) is first proteolytically processed into its mature form using recombinant human cathepsin L (R&D Systems) in a buffer consisting of 20 mM citric acid pH 4.5, 150 mM NaCl, 1 mM EDTA and 10 mM DTT. Test articles are applied to activated human DPP1 enzyme in Assay Buffer (25 mM MES pH 6.0, 50 mM NaCl, 5 mM DTT) in a total reaction volume of 125 μL. 25 μL of compound in Assay Buffer plus 5% DMSO is first added to 50 μL of activated human DPP1 enzyme at a concentration of 1 ng/μL and allowed to pre-incubate for 10 minutes at 37° C. after which 50 μL of 1000 μM H-Gly-Arg-AMC substrate (Bachem; St. Torrance, CA) is added, giving final substrate concentration of 400 μM and a final DMSO concentration of 1%. Substrate cleavage is measured for 90 minutes at 37° C., with fluorescence at Excitation/Emission 350/450 nm measured every 5 minutes. DPP1 concentration is interpolated based on its activity relative to a standard curve of activated human recombinant DPP1 enzyme. IC50 values for each compound are calculated via the XLFit (IDBS Version 5.3.1.3) Add-On to Microsoft Excel using the four parameter fit equation y={A+[(B−A)]/[1+((C/x)^D)]}, which appears as equation number 205 (4 Parameter Logistic Model or Sigmoidal Dose-Response Model) in XLFit. Default constraints are used for each Parameter. IC50 is defined as the compound concentration at which […] of enzyme activity is inhibited when compared to the no-compound control. The IC50 table is included in the table below.
Target sequence in this assay (P53634 25-134 limits assumed): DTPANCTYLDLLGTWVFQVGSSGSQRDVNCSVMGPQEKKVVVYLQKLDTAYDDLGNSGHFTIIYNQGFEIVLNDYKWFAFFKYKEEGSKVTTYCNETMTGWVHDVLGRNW
Target sequence in this assay (P53634 231-394 limits assumed): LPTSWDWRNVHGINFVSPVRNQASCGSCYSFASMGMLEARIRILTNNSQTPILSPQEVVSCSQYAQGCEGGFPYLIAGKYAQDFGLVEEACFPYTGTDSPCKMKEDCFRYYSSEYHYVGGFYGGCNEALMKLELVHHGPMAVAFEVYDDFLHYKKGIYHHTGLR
Target sequence in this assay (P53634 395-463 limits assumed): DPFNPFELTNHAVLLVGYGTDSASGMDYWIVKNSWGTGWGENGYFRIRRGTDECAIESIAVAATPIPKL

[2] = target: T1, DPP1; test: Cell Assay (DPP1 IC50 values, Table 2); type: cell-based; details: method not described
Target sequence in this assay (P53634 25-463): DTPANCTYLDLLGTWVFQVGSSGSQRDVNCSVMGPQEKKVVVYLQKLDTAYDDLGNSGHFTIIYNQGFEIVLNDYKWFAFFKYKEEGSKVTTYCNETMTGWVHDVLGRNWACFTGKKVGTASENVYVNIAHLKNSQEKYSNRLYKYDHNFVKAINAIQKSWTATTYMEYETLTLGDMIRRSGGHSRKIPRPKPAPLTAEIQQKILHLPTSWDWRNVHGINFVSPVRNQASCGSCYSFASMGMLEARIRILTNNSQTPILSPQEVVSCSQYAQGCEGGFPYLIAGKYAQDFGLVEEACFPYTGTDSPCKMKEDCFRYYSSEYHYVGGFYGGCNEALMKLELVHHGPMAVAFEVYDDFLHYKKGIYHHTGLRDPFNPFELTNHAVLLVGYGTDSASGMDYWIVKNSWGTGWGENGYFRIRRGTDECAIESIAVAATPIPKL

[3] = target: T2, active mouse DPP1 enzyme (Mus musculus, UniProt P97821); test: Mouse DPP1 Enzyme IC50 Assay; type: biochemical; details: active mouse DPP1, H-Gly-Arg-AMC substrate 400 μM, pH 5.5
T2 construct: Test articles are applied to active mouse DPP1 enzyme; purchased R&D Systems
Experimental: Mouse DPP1 Enzyme IC50 Assay
Test articles are applied to active mouse DPP1 enzyme (R&D Systems; Minneapolis, MN) in Assay Buffer (50 mM MES pH 5.5, 50 mM NaCl, 5 mM DTT) in a total reaction volume of 125 μL. 25 μL of compound in Assay Buffer plus 5% DMSO is first added to 50 μL of active mouse DPP1 enzyme at a concentration of 62.5 pg/μL and allowed to pre-incubate for 10 minutes at 37° C. after which 50 μL of 1000 μM H-Gly-Arg-AMC substrate (Bachem; St. Torrance, CA) is added, giving final substrate concentration of 400 μM and a final DMSO concentration of 1%. Substrate cleavage is measured for 90 minutes at 37° C., with fluorescence at Excitation/Emission 350/450 nm measured every 5 minutes. DPP1 concentration is interpolated based on its activity relative to a standard curve of recombinant active mouse DPP1 enzyme. IC50 values for each compound are calculated via the XLFit (IDBS Version 5.3.1.3) Add-On to Microsoft Excel using the four parameter fit equation y=(A+((B-A)/(1+((C/x)^D)))), which appears as equation number 205 (4 Parameter Logistic Model or Sigmoidal Dose-Response Model) in XLFit. Default constraints are used for each Parameter. IC50 is defined as the compound concentration at which 50% of enzyme activity is inhibited when compared to the no-compound control.

T2 sequence (P97821 25-134 limits assumed): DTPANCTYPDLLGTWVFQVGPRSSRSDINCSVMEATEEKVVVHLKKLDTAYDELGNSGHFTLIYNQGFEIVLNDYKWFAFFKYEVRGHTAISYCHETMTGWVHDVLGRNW
T2 sequence (P97821 231-393 limits assumed): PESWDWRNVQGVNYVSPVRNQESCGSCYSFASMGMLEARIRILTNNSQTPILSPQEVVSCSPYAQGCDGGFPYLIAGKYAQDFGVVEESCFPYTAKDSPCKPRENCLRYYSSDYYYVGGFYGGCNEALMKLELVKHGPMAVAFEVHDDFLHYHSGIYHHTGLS
T2 sequence (P97821 394-462 limits assumed): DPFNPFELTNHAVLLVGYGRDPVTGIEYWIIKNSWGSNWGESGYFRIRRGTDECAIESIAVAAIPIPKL

Cn1c(=O)oc2ccc(-c3cc4sc(C[C@H](C#N)NC(=O)[C@@H]5CNCCCCO5)cc4s3)cc21 [Compound 139c, (2S)—N-[(1R)-1-cyano-2-[5-(3-methyl-2-oxo-1,3-benzoxazol-5-yl)thieno[3,2-b]thiophen-2-yl]ethyl]-1,4-oxazocane-2-carboxamide]
IC50 [1]: ≥ 15 nM
pIC50 [2]: ≤ 8.82

Cn1c(=O)oc2ccc(-c3cc4cc(C[C@@H](C#N)NC(=O)C5CNCCCO5)ccc4s3)cc21 (stereo partly shown) [Compound 131b]
IC50 [1]: ≥ 15 nM
pIC50 [2]: ≤ 8.82

CO[C@@H]1CCNC[C@@H](C(=O)N[C@H](C#N)Cc2cc3sc(-c4ccc5oc(=O)n(C)c5c4)cc3s2)OC1 [Compound 142b]
IC50 [1]: 5 to 15 nM
pIC50 [2]: ≤ 8.82

Cn1c(=O)oc2ccc(-c3cc4ccc(C[C@@H](C#N)NC(=O)C5CNCCCO5)cc4s3)cc21 (stereo partly shown) [Compound 112b]
IC50 [1]: ≥ 15 nM

Cn1c(=O)oc2ccc(-c3cc4sc(CC(C#N)NC(=O)[C@@H]5CNCCCO5)cc4s3)cc21 (stereo partly drawn) [Compound 118b, (2S)—N-(1-cyano-2-(5-(3-methyl-2-oxo-2,3-dihydrobenzo[d]oxazol-5-yl)thieno[3,2-b]thiophen-2-yl)ethyl)-1,4-oxazepane-2-carboxamide]
IC50 [1]: ≥ 15 nM
pIC50 [2]: ≤ 8.82
IC50 [3]: ≥ 20 nM

Cn1c(=O)oc2ccc(-c3ccc4sc(C[C@@H](C#N)NC(=O)[C@@H]5CNCCCO5)c(F)c4c3)cc21 [Compound 115b]
IC50 [1]: ≥ 15 nM
pIC50 [2]: ≤ 8.82
IC50 [3]: ≥ 20 nM

Cn1c(=O)oc2ccc(C34CC(C[C@@H](C#N)NC(=O)[C@@H]5CNCCCO5)(C3)C4)cc21 [Compound 101d]
IC50 [1]: ≥ 15 nM

Cn1c(=O)oc2ccc(-c3cc4sc(C[C@@H](C#N)NC(=O)[C@@H]5CNCCCCO5)cc4s3)cc21 [Compound 139b, (2S)—N-[(1S)-1-cyano-2-[5-(3-methyl-2-oxo-1,3-benzoxazol-5-yl)thieno[3,2-b]thiophen-2-yl]ethyl]-1,4-oxazocane-2-carboxamide]
IC50 [1]: ≥ 15 nM
pIC50 [2]: ≤ 8.82

CCN1C(=O)Cc2ccc(-c3cc4sc(C[C@@H](C#N)NC(=O)[C@@H]5CNCCCCO5)cc4s3)cc21 [Compound 138b, (2S)—N-[(1S)-1-cyano-2-[5-(1-ethyl-2-oxo-3H-indol-6-yl)thieno[3,2-b]thiophen-2-yl]ethyl]-1,4-oxazocane-2-carboxamide]
IC50 [1]: ≥ 15 nM
pIC50 [2]: ≤ 8.82

Cn1c(=O)oc2ccc(-c3ccc4cc(CC(C#N)NC(=O)[C@@H]5CNCCCO5)ccc4c3)cc21 (stereo partly drawn) [Compound 133b, (2S)—N-{1-cyano-2-[6-(3-methyl-2-oxo-1,3-benzoxazol-5-yl)naphthalen-2-yl]ethyl}-1,4-oxazepane-2-carboxamide]
IC50 [1]: ≥ 15 nM
pIC50 [2]: ≤ 8.82

CCN1C(=O)Cc2ccc(-c3cc4sc(C[C@H](C#N)NC(=O)[C@@H]5CNCCCCO5)cc4s3)cc21 [Compound 138c, (2S)—N-[(1R)-1-cyano-2-[5-(1-ethyl-2-oxo-3H-indol-6-yl)thieno[3,2-b]thiophen-2-yl]ethyl]-1,4-oxazocane-2-carboxamide]
IC50 [1]: ≥ 15 nM
pIC50 [2]: ≤ 8.82

Cn1c(=O)oc2ccc(-c3ccc4sc(C[C@@H](C#N)NC(=O)C5CNCCCO5)cc4c3)cc21 (stereo partly shown) [Compound 114b]
IC50 [1]: ≥ 15 nM
pIC50 [2]: ≤ 8.82
IC50 [3]: ≥ 20 nM

Cn1c(=O)oc2ccc(-c3ccc4c(F)c(C[C@@H](C#N)NC(=O)[C@@H]5CNCCCO5)sc4c3)cc21 [Compound 130b]
IC50 [1]: ≥ 15 nM
pIC50 [2]: ≤ 8.82

Cn1c(=O)oc2ccc(-c3cc4ccc(C[C@@H](C#N)NC(=O)[C@@H]5CNCCCO5)c(F)c4s3)cc21 [Compound 134a]
IC50 [1]: ≥ 15 nM
pIC50 [2]: ≤ 8.82

Cn1c(=O)oc2ccc(-c3ccc4cc(CC(C#N)NC(=O)[C@@H]5CNCCCO5)[nH]c4c3)cc21 (stereo partly drawn) [Compound 128b, (2S)—N-(1-cyano-2-(6-(3-methyl-2-oxo-2,3-dihydrobenzo[d]oxazol-5-yl)-1H-indol-2-yl)ethyl)-1,4-oxazepane-2-carboxamide]
IC50 [1]: ≥ 15 nM
pIC50 [2]: ≤ 8.82

Cn1c(=O)oc2ccc(-c3ccc4cc(C[C@@H](C#N)NC(=O)[C@@H]5CNCCCO5)sc4c3)cc21 [Compound 113b]
IC50 [1]: ≥ 15 nM
pIC50 [2]: ≤ 8.82
IC50 [3]: ≥ 20 nM
